Structures are written as SMILES. Where a name gives a salt, the structure may show the parent alone.

One experiment deals with relapsed AML cells. The experiment is described as follows: Drug sensitivity assay, 1,536-well, 3-day culture with individual approved drugs at 10 μM, viability by alamarBlue. It is filed as cell-based, human.
Settings: not given
The essentials:
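FACS-sorted viable myeloid blasts from thawed AML samples, 4,000-4,500 cells per 5 μL well, cultured in IMDM with 15% BIT, SCF, FLT3L, IL-3, G-CSF. Drugs added per well; after three days percentage of live cells measured to gauge killing.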
Background: Resazurin is reduced to fluorescent resorufin, in cell work by metabolically active cells.
Turning to `[O-][n+]1ccccc1[S-].[O-][n+]1ccccc1[S-].[Zn+2]` [PYRITHIONE ZINC], the “#Cases >70% cell death” value was 7.

As to `C[CH2][Hg][S]c1ccccc1C(=O)[O-].[Na+]` [THIMEROSAL], the “#Cases >70% cell death” value came to 18.

The same experiment, now with this note: number of relapsed AML cases out of 18 tested with >70% cell death; 10 μM, 3-day culture.
Regarding `CC[C@@H]([C@H](C)O)n1ncn(-c2ccc(N3CCN(c4ccc(OC[C@@H]5CO[C@@](Cn6cncn6)(c6ccc(F)cc6F)C5)cc4)CC3)cc2)c1=O` [POSACONAZOLE], the “#Cases >70% cell death” value was found to be 6.

As for `C#CCC(Cc1cnc2nc(N)nc(N)c2n1)c1ccc(C(=O)N[C@@H](CCC(=O)O)C(=O)O)cc1` (stereo partly drawn) [PRALATREXATE(FOLOTYN, PRALATREXATE], the “#Cases >70% cell death” value worked out at 5.

Consider `CCCCOc1ccc(OCCCN2CCOCC2)cc1` [PRAMOXINE], for which the “#Cases >70% cell death” value is listed as 1.

Turning to `C[C@]12C=CC(=O)C=C1CC[C@@H]1[C@@H]2[C@@H](O)C[C@@]2(C)[C@H]1CC[C@]2(O)C(=O)CO` [PREDNISOLONE], the “#Cases >70% cell death” value came to 1.

Take `COc1cc(NC(C)CCCN)c2ncccc2c1` (stereo not drawn) [PRIMAQUINE]: the “#Cases >70% cell death” value stood at 12.

`CC(C)(Sc1cc(C(C)(C)C)c(O)c(C(C)(C)C)c1)Sc1cc(C(C)(C)C)c(O)c(C(C)(C)C)c1` [PROBUCOL]: the “#Cases >70% cell death” value is 4.

On to `CN1CCN(CCCN2c3ccccc3Sc3ccc(Cl)cc32)CC1` [PROCHLORPERAZINE], for which the “#Cases >70% cell death” value is 6.

Turning to `Nc1ccc2cc3ccc(N)cc3nc2c1` [PROFLAVINE HEMISULFATE], the “#Cases >70% cell death” value was found to be 3.

As to `CCCNCC(O)COc1ccccc1C(=O)CCc1ccccc1` (stereo not drawn) [PROPAFENONE], the “#Cases >70% cell death” value was determined as 1.

Regarding `CCCOc1ccc(C(=O)OCCN(CC)CC)cc1N` [PROPARACAINE], the “#Cases >70% cell death” value was 1.

For the compound `CCCOc1cc(N)ccc1C(=O)OCCN(CC)CC` [PROPOXYCAINE HYDROCHLORIDE], the “#Cases >70% cell death” value is on record as 1.

Take `C[C@@H]1O[C@@H](O[C@@H]2C=C3CC[C@@H]4[C@H](CC[C@]5(C)[C@@H](c6ccc(=O)oc6)CC[C@]45O)[C@@]3(C)CC2)[C@H](O)[C@H](O)[C@H]1O` [PROSCILLARIDIN]: the “#Cases >70% cell death” value was 18.

As to `N#Cc1cc(CN2CCC(Nc3ncnc4sc(Cl)cc34)CC2)ccc1F` [PRX-8066], the “#Cases >70% cell death” value was found to be 1.

In the case of `COc1ccc(C[C@H](N)C(=O)N[C@H]2[C@@H](O)[C@H](n3cnc4c(N(C)C)ncnc43)O[C@@H]2CO)cc1` [PUROMYCIN], the “#Cases >70% cell death” value is 18.

As to `COc1ccc2nc3cc(Cl)ccc3c(Nc3cc(CN4CCCC4)c(O)c(CN4CCCC4)c3)c2n1.O=P(O)(O)O.O=P(O)(O)O.O=P(O)(O)O.O=P(O)(O)O` [PYRONARIDINE TETRAPHOSPHATE], the “#Cases >70% cell death” value is listed as 9.

On to `O=C(CCCCCCC(=O)Nc1cccnc1)NO` [PYROXAMIDE], for which the “#Cases >70% cell death” value came out at 15.

Turning to `OCCOCCN1CCN(C2=Nc3ccccc3Sc3ccccc32)CC1` [QUETIAPINE], the “#Cases >70% cell death” value turned out to be 1.

Regarding `C#C[C@]1(O)CC[C@H]2[C@@H]3CCc4cc(OC5CCCC5)ccc4[C@H]3CC[C@@]21C` [QUINESTROL], the “#Cases >70% cell death” value turned out to be 15.

Consider `COc1ccc(F)c(F)c1C(=O)c1cnc(NC2CCN(S(C)(=O)=O)CC2)nc1N` [R-547], for which the “#Cases >70% cell death” value turned out to be 18.

Take `O=C(c1ccc(OCCN2CCCCC2)cc1)c1c(-c2ccc(O)cc2)sc2cc(O)ccc12` [RALOXIFENE]: the “#Cases >70% cell death” value is 3.

With `Cc1nc2ccc(CN(C)c3ccc(C(=O)N[C@@H](CCC(=O)O)C(=O)O)s3)cc2c(=O)[nH]1` [RALTITREXED], the “#Cases >70% cell death” value is given as 3.

With `CNC(=O)c1cc(Oc2ccc(NC(=O)Nc3ccc(Cl)c(C(F)(F)F)c3)c(F)c2)ccn1` [REGORAFENIB], the “#Cases >70% cell death” value is reported as 9.

Consider `Cc1nc2sccn2c(=O)c1CCN1CCC(=C(c2ccc(F)cc2)c2ccc(F)cc2)CC1` [RITANSERIN], for which the “#Cases >70% cell death” value worked out at 1.

Turning to `COc1ccc(C2CNC(=O)C2)cc1OC1CCCC1` (stereo not drawn) [ROLIPRAM], the “#Cases >70% cell death” value amounted to 1.

With `CCCn1c(=O)c2[nH]c(C34CC5CC(CC3C5)C4)nc2n(CCC)c1=O` [ROLOFYLLINE], the “#Cases >70% cell death” value is on record as 1.

As to `N#CC[C@H](C1CCCC1)n1cc(-c2ncnc3[nH]ccc23)cn1` [RUXOLITINIB], the “#Cases >70% cell death” value was found to be 6.

As for `CC[C@@H](C(=O)[C@@H](C)[C@@H](O)[C@H](C)[C@@H]1O[C@@H]([C@@H](CC)C(=O)O)CC[C@@H]1C)[C@H]1O[C@]2(C=C[C@@H](O)[C@]3(CC[C@@](C)([C@H]4CC[C@](O)(CC)[C@H](C)O4)O3)O2)[C@H](C)C[C@@H]1C` [SALINOMYCIN], the “#Cases >70% cell death” value is 10.

Take `C[n+]1cc2c3c(ccc2c2ccc4cc5c(cc4c21)OCO5)OCO3` [SANGUINARIUM CHLORIDE]: the “#Cases >70% cell death” value was 18.

Regarding `N#C[C@@H]1C[C@@H]2C[C@@H]2N1C(=O)[C@@H](N)C12CC3CC(CC(O)(C3)C1)C2` [SAXAGLIPTIN], the “#Cases >70% cell death” value is listed as 1.

`Cc1ccc(C(=O)N(CCCN)[C@@H](c2oc3cc(Cl)ccc3c(=O)c2Cc2ccccc2)C(C)C)cc1` [SB743921]: the “#Cases >70% cell death” value is listed as 18.

For the compound `O=C(Nc1ccccc1Br)N[C@@H]1CCN(c2ccc(C(F)(F)F)cn2)C1` [SB-705498], the “#Cases >70% cell death” value was 1.

Take `CO[C@H]1C[C@H](O[C@@H]2/C(C)=C/C[C@@H]3C[C@@H](C[C@]4(CC[C@H](C)[C@@H](C5CCCCC5)O4)O3)OC(=O)[C@@H]3C=C(C)/C(=N/O)[C@H]4OC/C(=C\C=C\[C@@H]2C)[C@]43O)O[C@@H](C)[C@@H]1O` [SELAMECTIN]: the “#Cases >70% cell death” value worked out at 18.

On to `CC1=C(C)C(=O)C(C(CCCCCC(=O)O)c2ccccc2)=C(C)C1=O` (stereo not drawn) [SERATRODAST], for which the “#Cases >70% cell death” value is reported as 1.

As for `Clc1ccc(C(Cn2ccnc2)OCc2csc3c(Cl)cccc23)c(Cl)c1` (stereo not drawn) [SERTACONAZOLE], the “#Cases >70% cell death” value is recorded as 2.

Turning to `CN1CCC(CNc2ccc3ncc(-c4cccc(OC(F)(F)F)c4)n3n2)CC1` [SGI-1776], the “#Cases >70% cell death” value came to 14.

Regarding `CN1CCN(c2ncc(-c3cc(Cl)cc(Cl)c3Cl)c(N)n2)CC1` [SIPATRIGINE], the “#Cases >70% cell death” value is 1.

In the case of `CN[C@@H]1[C@@H](O)[C@@H](O[C@@H]2[C@@H](O)[C@H](O[C@H]3OC(CN)=CC[C@H]3N)[C@@H](N)C[C@H]2N)OC[C@]1(C)O` [SISOMICIN], the “#Cases >70% cell death” value turned out to be 10.

Regarding `CNC(=O)c1cc(Oc2ccc(NC(=O)Nc3ccc(Cl)c(C(F)(F)F)c3)cc2)ccn1` [SORAFENIB], the “#Cases >70% cell death” value is on record as 9.

`C[C@@H]1O[C@@H](O[C@H]2C[C@@H](O)[C@]3(CO)[C@H]4[C@H](O)C[C@]5(C)[C@@H](C6=CC(=O)OC6)CC[C@]5(O)[C@@H]4CC[C@]3(O)C2)[C@H](O)[C@H](O)[C@H]1O.O.O.O.O.O.O.O.O` [STROPHANTINE OCTAHYDRATE]: the “#Cases >70% cell death” value was 18.

As for `COc1ccc2c(c1)/C(=C/c1cnc[nH]1)C(=O)N2` [SU-9516], the “#Cases >70% cell death” value was 1.

`Clc1ccc(CSC(Cn2ccnc2)c2ccc(Cl)cc2Cl)cc1` (stereo not drawn) [SULCONAZOLE NITRATE]: the “#Cases >70% cell death” value is recorded as 5.

On to `COc1ncnc(NS(=O)(=O)c2ccc(N)cc2)c1OC` [SULFADOXINE], for which the “#Cases >70% cell death” value was 1.

As to `Cc1nnc(NS(=O)(=O)c2ccc(N)cc2)s1` [SULFAMETHIZOLE], the “#Cases >70% cell death” value is reported as 18.

Regarding `CCCCCCCCNC(C)C(O)c1ccc(SC(C)C)cc1` (stereo not drawn) [SULOCTIDIL], the “#Cases >70% cell death” value was 12.

Take `CCN(CC)CCNC(=O)c1c(C)[nH]c(/C=C2\C(=O)Nc3ccc(F)cc32)c1C` [SUNITINIB MALATE]: the “#Cases >70% cell death” value was found to be 15.

As to `CC(=O)Nc1ccc(C(=O)Nc2ccccc2N)cc1` [TACEDINALINE], the “#Cases >70% cell death” value was 4.

As for `CN[C@H](C(=O)N[C@H](C(=O)N(C)[C@H](/C=C(\C)C(=O)O)C(C)C)C(C)(C)C)C(C)(C)c1ccccc1` [TALTOBULIN], the “#Cases >70% cell death” value was 14.

Regarding `Cn1c(C#N)ccc1-c1ccc2c(c1)C(C)(C)OC(=S)N2` [TANAPROGET], the “#Cases >70% cell death” value came to 5.

With `C=CCNC1=C2C[C@@H](C)C[C@H](OC)[C@H](O)[C@@H](C)/C=C(\C)[C@H](OC(N)=O)[C@@H](OC)/C=C\C=C(/C)C(=O)NC(=CC1=O)C2=O` [TANESPIMYCIN (17-AAG), TANESPIMYCIN], the “#Cases >70% cell death” value is 18.

`COc1cccc([C@@H](C)NCCCc2ccccc2Cl)c1` [TECALCET HYDROCHLORIDE]: the “#Cases >70% cell death” value is on record as 1.

Take `Cn1nnc2c(C(N)=O)ncn2c1=O` [TEMOZOLAMIDE]: the “#Cases >70% cell death” value amounted to 14.

On to `COc1cc([C@@H]2c3cc4c(cc3[C@@H](O[C@@H]3O[C@@H]5CO[C@@H](c6cccs6)O[C@H]5[C@H](O)[C@H]3O)[C@H]3COC(=O)[C@H]23)OCO4)cc(OC)c1O` [TENIPOSIDE], for which the “#Cases >70% cell death” value is listed as 10.

Take `CC(C)N1CCN(c2ccc(OCC3COC(Cn4cncn4)(c4ccc(Cl)cc4Cl)O3)cc2)CC1` (stereo not drawn) [TERCONAZOLE]: the “#Cases >70% cell death” value is 7.

In the case of `CCN(CC)CCOc1ccc(Cc2ccccc2)cc1` [TESMILIFENE HYDROCHLORIDE], the “#Cases >70% cell death” value is recorded as 9.

In the case of `CCCCNc1ccc(C(=O)OCCN(C)C)cc1` [TETRACAINE], the “#Cases >70% cell death” value came to 12.

As to `Nc1nc2nc[nH]c2c(=S)[nH]1` [THIOGUANINE], the “#Cases >70% cell death” value was 14.

As for `CN(C)C(=S)SSC(=S)N(C)C` [THIRAM], the “#Cases >70% cell death” value is on record as 4.

For the compound `CCCCCCCCCCCCCCCC[N+](C)(C)CCN(Cc1ccc(OC)cc1)c1ncccn1` [THONZONIUM BROMIDE], the “#Cases >70% cell death” value was determined as 18.

Turning to `C#C[C@]1(O)CC[C@H]2[C@@H]3[C@H](C)CC4=C(CCC(=O)C4)[C@H]3CC[C@@]21C` [TIBOLONE], the “#Cases >70% cell death” value is on record as 1.

For the compound `Clc1ccccc1CN1CCc2sccc2C1` [TICLOPIDINE], the “#Cases >70% cell death” value was 1.

On to `CC[C@H]1OC(=O)C[C@@H](O)[C@H](C)[C@@H](O[C@@H]2O[C@H](C)[C@@H](O)[C@H](N(C)C)[C@H]2O)[C@@H](CCN2C[C@H](C)C[C@H](C)C2)C[C@@H](C)C(=O)/C=C/C(C)=C/[C@@H]1CO[C@@H]1O[C@H](C)[C@@H](O)[C@@H](OC)[C@H]1OC` [TILMICOSIN], for which the “#Cases >70% cell death” value is 1.
